Data reported in patent US20120198764A1, “METHOD FOR REDUCING PHYTOTOXICITY” (Ishihara Sangyo Kaisha, Ltd., priority 2009, published 2012).
Where two headings read alike, the source gives them in different places.

Assays:
Conditions in all cases: in vivo
[1] = tested on: bentgrass (breed: pencross); test: Test Example 7: pot test, copper phthalocyanine or Prussian Blue applied 1 day before flazasulfuron
Protocol: (§1) On 13th day after the treatment with flazasulfuron, the state of growth of bentgrass was visually observed and evaluated in accordance with growth inhibition rate (%)=0 (equivalent to the non-treated area) to 100 (complete kill), and thereby the results shown in Table 1 were obtained. Further, the test was carried out in duplicate.
(§2) 1/1,000,000 ha pots were prepared, as the present invention area, comparative area and non-treated area, soil was put into them, and bentgrass (breed: pencross) in sod state was planted thereon. After the bentgrass root-took on soil, a spray liquid was prepared by diluting copper phthalocyanine or Prussian Blue with water to 1,000 times or 500 times, and the bentgrass in the present invention area was subjected to foliar treatment with the spray liquid in an amount of about 1,000 L/ha by a small spray gun. After 1 day, a spray liquid was prepared by diluting a predetermined amount (corresponding to flazasulfuron: 5 g a.i./ha) of SHIBAGEN DF (tradename, the same as in Test Example 1) with water containing 0.02 wt % of Kusa-rino (tradename, the same as in Test Example 1), and the bentgrass in the present invention area and comparative area were subjected to foliar treatment with the spray liquid in an amount of about 2,000 L/ha by a small spray gun.
On 8th day after the treatment with flazasulfuron, the state of growth of bentgrass was evaluated in the same manner as in Test Example 1, and thereby the results shown in Table7 were obtained. Further, the test was carried out in duplicate.

[2] = tested on: bentgrass (breed: pencross); test: Test Example 2: pot test, TurfGreen BG applied 1 day after flazasulfuron
Protocol: as §1
as §2, with “With respect” for “After the bentgrass root-took on soil, a spray liquid was prepared by diluting copper phthalocyanine or Prussian Blue with water”, “to” for “to 1,000 times or 500 times, and”, “and comparative area, after” for “was subjected to foliar treatment with”, “bentgrass root-took on soil,” for “spray liquid in an amount of about 1,000 L/ha by a small spray gun. After 1 day,”, “gun. […]” for “gun.”
On 7th day after the treatment with TurfGreen BG, the state of growth of bentgrass was evaluated in the same manner as in Test Example 1, and thereby the results shown in Table 2 were obtained. […]

[3] = tested on: bentgrass (breed: pencross); test: Test Example 1: pot test, TurfGreen BG applied 7 days before flazasulfuron
Protocol: 1/300,000 ha pots were prepared, as the present invention area, comparative area and non-treated area, soil was put into them, and bentgrass (breed: pencross) in sod state (state of mat) was planted thereon. With respect to the bentgrass in the present invention area, after the bentgrass root-took on soil, a spray liquid was prepared by diluting a colorant for turfgrass (tradename: TurfGreen BG (containing chlorinated copper phthalocyanine), manufactured by Nisso Green Co., Ltd.) with water to 50 times, and the bentgrass was subjected to foliar treatment with the spray liquid in an amount of about 2,000 L/ha by a small spray gun. […]
On 13th day after the treatment with flazasulfuron, the state of growth of bentgrass was visually observed and evaluated in accordance with growth inhibition rate (%)=0 (equivalent to the non-treated area) to 100 (complete kill), and thereby the results shown in Table 1 were obtained. […]

[4] = tested on: bentgrass (breed: pencross); test: Test Example 3: ground plot test, TurfGreen BG applied 1 or 3 days before flazasulfuron
Protocol: as §1
(§3) Among bentgrass (breed: pencross) planted in sod state on ground in 0.5 m^2 (5.0×10^−5 ha, 1 m×0.5 m) in the present invention area A, the present invention area B, comparative area and non-treated area, the bentgrass in the present invention area A, the present invention area B and comparative area were subjected to foliar treatment with a spray liquid prepared by diluting a predetermined amount (corresponding to flazasulfuron: 6.25 g a.i./ha) of SHIBAGEN DF (tradename, the same as in Test Example 1) with water containing 0.02 wt % of Kusa-rino (tradename, the same as in Test Example 1) in an amount of about 2,000 L/ha by a hand portable pump sprayer. […]
On 14th day after the treatment with flazasulfuron, the state of growth of the bentgrass was evaluated in the same manner as in Test Example 1, and thereby the results shown in Table 3 were obtained. […]

[5] = tested on: bentgrass (breed: pencross); test: Test Example 4: ground plot test, TurfGreen BG applied 7 days after flazasulfuron
Protocol: as §1
as §3, with “planted on ground” for “planted”, “state” for “state on ground”, “m) of” for “m) in”, “invention area,” for “invention area A, the present invention area B,”, “the bentgrasses” for “the bentgrass”, “area” for “area A, the present invention area B”
Prior to the treatment with TurfGreen BG or on 7th day after the treatment with TurfGreen BG, the state of growth of bentgrass was evaluated in the same manner as in Test Example 1, and thereby the results shown in Table 4 were obtained. […]

[6] = tested on: bentgrass (breed: pencross); test: Test Example 6: ground plot test, FULLGREEN S applied 1 day before or after flazasulfuron
Protocol: as §1
as §3, with “planted on ground” for “planted”, “state” for “state on ground”, “m) of” for “m) in”, “a small spray gun.” for “a hand portable pump sprayer.”
On 7th day after the treatment with flazasulfuron, the state of growth of bentgrass was evaluated in the same manner as in Test Example 1, and thereby the results shown in Table 6 were obtained. […]

[7] = tested on: bentgrass (breed: pencross); test: Test Example 5: pot test, colorants applied 1 day before flazasulfuron
Protocol: as §1
1/1,000,000 ha pots were prepared, as the present invention area, comparative area and non-treated area, soil was put into them, and bentgrass (breed: pencross) in sod state was planted thereon. After the bentgrass root-took on soil, a spray liquid was prepared by diluting a colorant for turfgrass (tradename: Green Way (pigment containing metal ions), manufactured by Otsuka Chemical Co., Ltd.), (tradename: Green Way Sayaka (pigment containing metal ions), manufactured by Otsuka Chemical Co., Ltd.) or (tradename: Clear Green L (copper phthalocyanine), manufactured by Ohkawaya Co., Ltd.) with water to 50 times, and the bentgrass in the present invention area was subjected to foliar treatment with the spray liquid in an amount of about 2,000 L/ha by a small spray gun. […]
On 7th day after the treatment with flazasulfuron, the state of growth of bentgrass was evaluated in the same manner as in Test Example 1, and thereby the results shown in Table 5 were obtained. […]

[8] = tested on: bentgrass (breed: pencross)
Protocol: as §1
as §2, with “Pigment Green 7” for “copper phthalocyanine or Prussian Blue”, “125” for “1,000 times or 500”, “10” for “5”
On 7th day after the treatment with flazasulfuron, the state of growth of bentgrass was evaluated in the same manner as in Test Example 1, and thereby the results shown in Table 9 were obtained. Further, the test was carried out in triplicate.

[9] = tested on: bentgrass (breed: pencross); test: Test Example 8: pot test, Prussian Blue applied 5 days after flazasulfuron
Protocol: as §1
as §2, with “soil,” for “soil, a spray liquid was prepared by diluting copper phthalocyanine or Prussian Blue with water to 1,000 times or 500 times, and the bentgrass in the present invention area was subjected to foliar treatment with the spray liquid in an amount of about 1,000 L/ha by a small spray gun. After 1 day,”, “gun. […]” for “gun.”
On 7th day after the treatment with Prussian Blue, the state of growth of bentgrass was evaluated in the same manner as in Test Example 1, and thereby the results shown in Table 8 were obtained. […]

| Compound | State of growth of bentgrass, Growth inhibition rate (%) [1] | phytotoxicity due to flazasulfuron, compared with comparative area [1] | State of growth of bentgrass, Growth inhibition rate (%) [2] | State of growth of bentgrass, Growth inhibition rate (%) [3] | State of growth of bentgrass, Growth inhibition rate (%) [4] | State of growth of bentgrass, Growth inhibition rate (%) [5] | State of growth of bentgrass, Growth inhibition rate (%) [6] | State of growth of bentgrass, Growth inhibition rate (%) [7] | State of growth of bentgrass, Growth inhibition rate (%) [8] | State of growth of bentgrass, Growth inhibition rate (%) [9] | phytotoxicity due to flazasulfuron, compared with comparative area [8] |
| --- | --- | --- | --- | --- | --- | --- | --- | --- | --- | --- | --- |
| [Cu+2].c1ccc2c(c1)-c1nc-2nc2[n-]c(nc3nc(nc4[n-]c(n1)c1ccccc41)-c1ccccc1-3)c1ccccc21 [copper phthalocyanine] | 40% | reduced | – | – | – | – | – | – | – | – | – |
| COc1cc(OC)nc(NC(=O)NS(=O)(=O)c2ncccc2C(F)(F)F)n1 [flazasulfuron] | 55% | – | 48% | 50% | 40% | 30% | 31% | 53% | 56% | 54% | – |
| Pigment Green 7 | – | – | – | – | – | – | – | – | 50% | – | reduced |
